# According to patent US8741899B2, “(4-chloro-2-fluoro-N-(2-fluorophenyl)-5-[(8aR)-hexahydropyrrolo-[1,2-a]pyrazin-2(1H)-ylcarbonyl]-benzenesulfonamide, and pharmaceutically acceptable salts thereof” (AbbVie Inc., priority 2009, dated 2014):
# Molecular target: T1, Human Cav3.2 Channels (Homo sapiens, UniProt O95180)
# T1 construct: expressed in transfected cells
# Assay: Electrophysiologic (whole-cell patch-clamp) assessment of calcium channel activity in HEK293 cells stably expressing hCav3.2
# Type: cell-based
# Settings: −77 mV, geometric mean, read-out: Human Cav3.2 −77 mV IC50 (μM) GeoMean
# Procedure: (i) In Vitro Methods—Electrophysiologic Assessment of Calcium Channel Activity:
# Patch-clamp recordings were performed using HEK293 cells stably expressing hCav3.2. Cells were plated in T175 flasks and grown at 37° C. and under 5% CO2 to approximately 50% confluency. On the day of the experiment, cells were harvested with Detachin™ cell detachment solution (Genlantis, San Diego, Calif.) and maintained in serum-free culture medium supplemented with 25 mM HEPES up to several hours prior to experiment. Whole-cell patch-clamp recordings were obtained using extracellular saline consisting of (mM): 87.5 CsCl, 40 TEA-Cl, 5 CaCl2, 1 MgCl2, 10 HEPES, 10 glucose. The pH was adjusted to 7.2 with CsOH and the osmolarity was adjusted to approximately 310 mOsm with sucrose. Intracellular solution consisted of (mM): 112 CsCl, 27 CsF, 2 NaCl, 8.2 EGTA, 10 HEPES. Prior to an experiment 4 mM Mg2ATP was added and the pH was adjusted to 7.2 with CsOH with an osmolarity of approximately 290 mOsm. A two-pulse voltage protocol was utilized to assess compound inhibition. First, cells were held with an 8 s pre-pulse at −100 mV prior to a 160 ms test pulse to −30 mV. This was followed by an 8 s pre-pulse at approximately −75 mV prior to a […]. Increasing concentrations of antagonist were applied to individual cells in a multi-addition format with 5 minutes in each test concentration. For each cell, responses were normalized to dimethyl sulfoxide vehicle control to generate concentration-response curves.
# T1 sequence (O95180 whole entry): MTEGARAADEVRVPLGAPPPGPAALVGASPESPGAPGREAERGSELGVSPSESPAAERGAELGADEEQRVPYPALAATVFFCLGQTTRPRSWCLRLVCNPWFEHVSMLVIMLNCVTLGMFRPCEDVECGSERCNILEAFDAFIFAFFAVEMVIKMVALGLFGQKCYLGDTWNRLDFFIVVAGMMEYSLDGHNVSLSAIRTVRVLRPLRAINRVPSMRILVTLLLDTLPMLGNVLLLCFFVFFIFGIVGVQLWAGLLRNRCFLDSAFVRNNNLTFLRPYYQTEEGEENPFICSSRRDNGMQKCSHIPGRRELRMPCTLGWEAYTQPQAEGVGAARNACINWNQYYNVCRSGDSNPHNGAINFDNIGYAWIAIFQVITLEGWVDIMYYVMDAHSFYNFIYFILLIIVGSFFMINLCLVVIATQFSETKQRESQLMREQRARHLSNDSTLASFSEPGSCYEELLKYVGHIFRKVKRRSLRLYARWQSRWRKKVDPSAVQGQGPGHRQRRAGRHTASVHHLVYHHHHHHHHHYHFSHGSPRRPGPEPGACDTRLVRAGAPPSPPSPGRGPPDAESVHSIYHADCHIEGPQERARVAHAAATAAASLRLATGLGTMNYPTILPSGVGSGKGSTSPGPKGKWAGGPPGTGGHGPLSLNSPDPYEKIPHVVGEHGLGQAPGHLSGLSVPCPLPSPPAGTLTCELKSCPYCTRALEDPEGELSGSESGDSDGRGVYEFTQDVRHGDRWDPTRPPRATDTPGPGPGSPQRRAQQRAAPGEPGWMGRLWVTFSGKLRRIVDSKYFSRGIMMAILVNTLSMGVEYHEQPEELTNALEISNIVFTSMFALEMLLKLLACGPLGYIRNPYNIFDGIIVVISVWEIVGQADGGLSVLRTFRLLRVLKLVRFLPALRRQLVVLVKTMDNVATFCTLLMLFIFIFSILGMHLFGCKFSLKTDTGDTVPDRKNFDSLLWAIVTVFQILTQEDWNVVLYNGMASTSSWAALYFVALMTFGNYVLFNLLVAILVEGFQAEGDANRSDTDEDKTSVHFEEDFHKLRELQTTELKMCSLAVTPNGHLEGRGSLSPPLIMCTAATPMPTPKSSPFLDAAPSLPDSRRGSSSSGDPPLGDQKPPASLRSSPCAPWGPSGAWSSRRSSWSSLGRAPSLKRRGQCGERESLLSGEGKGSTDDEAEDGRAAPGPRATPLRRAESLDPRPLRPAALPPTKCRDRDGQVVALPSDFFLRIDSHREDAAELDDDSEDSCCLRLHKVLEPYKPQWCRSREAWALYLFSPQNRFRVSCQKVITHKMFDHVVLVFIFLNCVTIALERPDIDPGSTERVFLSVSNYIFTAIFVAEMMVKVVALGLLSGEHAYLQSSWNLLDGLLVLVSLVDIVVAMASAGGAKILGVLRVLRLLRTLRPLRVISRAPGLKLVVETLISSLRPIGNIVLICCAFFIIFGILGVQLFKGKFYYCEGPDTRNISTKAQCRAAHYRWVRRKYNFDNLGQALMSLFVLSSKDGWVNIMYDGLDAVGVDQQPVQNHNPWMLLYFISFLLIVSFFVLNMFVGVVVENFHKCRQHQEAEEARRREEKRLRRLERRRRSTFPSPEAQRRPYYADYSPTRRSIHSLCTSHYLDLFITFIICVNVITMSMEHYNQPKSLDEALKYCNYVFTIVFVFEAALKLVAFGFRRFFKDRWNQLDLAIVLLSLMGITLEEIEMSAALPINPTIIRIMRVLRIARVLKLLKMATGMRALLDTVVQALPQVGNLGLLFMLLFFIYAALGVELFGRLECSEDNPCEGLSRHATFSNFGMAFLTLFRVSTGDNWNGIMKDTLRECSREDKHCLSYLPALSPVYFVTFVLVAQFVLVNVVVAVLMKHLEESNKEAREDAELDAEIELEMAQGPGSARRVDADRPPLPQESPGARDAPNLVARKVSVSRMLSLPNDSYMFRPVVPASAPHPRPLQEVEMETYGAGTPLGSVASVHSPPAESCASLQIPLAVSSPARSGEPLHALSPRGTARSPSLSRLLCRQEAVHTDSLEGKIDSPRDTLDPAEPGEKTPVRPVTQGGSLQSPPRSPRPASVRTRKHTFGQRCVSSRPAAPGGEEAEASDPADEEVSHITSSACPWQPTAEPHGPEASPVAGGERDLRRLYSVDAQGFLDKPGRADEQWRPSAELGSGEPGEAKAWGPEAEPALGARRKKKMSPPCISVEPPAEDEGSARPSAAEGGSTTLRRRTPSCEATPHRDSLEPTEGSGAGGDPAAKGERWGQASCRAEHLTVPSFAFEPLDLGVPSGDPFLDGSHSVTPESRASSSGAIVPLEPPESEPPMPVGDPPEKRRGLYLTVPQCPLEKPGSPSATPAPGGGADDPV
row,Structure (SMILES),IC50
1,"O=C(c1cccc(S(=O)(=O)Nc2cccc(Cl)c2)c1)N1CCN2CCC[C@H]2C1 [Example 21, N-(3-chlorophenyl)-3-[(8aS)-hexahydropyrrolo[1,2-a]pyrazin-2(1H)-ylcarbonyl]benzenesulfonamide]",5.9 µM
2,"O=C(c1cccc(S(=O)(=O)Nc2ccc(C(F)(F)F)cc2)c1)N1CCC(N2CCCC2)CC1 [Example 42, 3-[(4-pyrrolidin-1-ylpiperidin-1-yl)carbonyl]-N-[4-(trifluoromethyl)phenyl]benzenesulfonamide]",5.8 µM
3,"O=C(c1cccc(S(=O)(=O)NCCC(c2ccccc2)c2ccccc2)c1)N1CCN2CCC[C@@H]2C1 [Example 29, N-(3,3-diphenylpropyl)-3-[(8aR)-hexahydropyrrolo[1,2-a]pyrazin-2(1H)-ylcarbonyl]benzenesulfonamide]",2.1 µM
4,"O=C(c1cccc(S(=O)(=O)NCCC(c2ccccc2)c2ccccc2)c1)N1CCN2CCC[C@H]2C1 [Example 30, N-(3,3-diphenylpropyl)-3-[(8aS)-hexahydropyrrolo[1,2-a]pyrazin-2(1H)-ylcarbonyl]benzenesulfonamide]",1.8 µM
5,"O=C(c1cccc(S(=O)(=O)Nc2cccc(C(F)(F)F)c2)c1)N1CCN2CCCCC2C1 (centres unmarked) [Example 38, 3-(octahydro-2H-pyrido[1,2-a]pyrazin-2-ylcarbonyl)-N-[3-(trifluoromethyl)phenyl]benzenesulfonamide]",4.6 µM
6,"O=C(c1cccc(S(=O)(=O)Nc2ccc(C(F)(F)F)cc2)c1)N1CCN2CCC[C@H]2C1 [Example 8, 3-[(8aS)-hexahydropyrrolo[1,2-a]pyrazin-2(1H)-ylcarbonyl]-N-[4-(trifluoromethyl)phenyl]benzenesulfonamide]",2.1 µM
7,"O=C(c1cccc(S(=O)(=O)NCC(c2ccccc2)c2ccccc2)c1)N1CCN2CCC[C@H]2C1 [Example 31, N-(2,2-diphenylethyl)-3-[(8aS)-hexahydropyrrolo[1,2-a]pyrazin-2(1H)-ylcarbonyl]benzenesulfonamide]",3.3 µM
8,"O=C(c1cccc(S(=O)(=O)Nc2ccc(F)cc2)c1)N1CCN2CCC[C@H]2C1 [Example 5, N-(4-fluorophenyl)-3-[(8aS)-hexahydropyrrolo[1,2-a]pyrazin-2(1H)-ylcarbonyl]benzenesulfonamide]",1.8 µM
9,"O=C(c1cccc(S(=O)(=O)N2CCN(c3ccc(F)cc3)CC2)c1)N1CCN2CCC[C@H]2C1 [Example 35, (8aS)-2-(3-{[4-(4-fluorophenyl)piperazin-1-yl]sulfonyl}benzoyl)octahydropyrrolo[1,2-a]pyrazine]",4.8 µM

# More lines, now with the values ahead:
row,IC50,Structure (SMILES)
1,1.3 µM,"O=C(c1cccc(S(=O)(=O)Nc2ccc(C(F)(F)F)cc2)c1)N1CCC(N2CCCCC2)CC1 [Example 49, 3-(1,4′-bipiperidin-1′-ylcarbonyl)-N-[4-(trifluoromethyl)phenyl]benzenesulfonamide]"
2,> 10 µM,"O=C(N[C@H](CO)c1ccccc1)c1cccc(S(=O)(=O)N2CCN3CCC[C@@H]3C2)c1 [Example 81, 3-[(8aR)-hexahydropyrrolo[1,2-a]pyrazin-2(1H)-ylsulfonyl]-N-[(1S)-2-hydroxy-1-phenylethyl]benzamide]"
3,0.9 µM,"O=C(c1cccc(S(=O)(=O)N2CCN3CCC[C@H]3C2)c1)N1CCN(C(c2ccc(F)cc2)c2ccc(F)cc2)CC1 [Example 51, (8aS)-2-{[3-({4-[bis(4-fluorophenyl)methyl]piperazin-1-yl}carbonyl)phenyl]sulfonyl}octahydropyrrolo[1,2-a]pyrazine]"
4,0.6 µM,"O=C(c1cccc(S(=O)(=O)N2CCN3CCC[C@@H]3C2)c1)N1CCN(C(c2ccc(F)cc2)c2ccc(F)cc2)CC1 [Example 50, (8aR)-2-{[3-({4-[bis(4-fluorophenyl)methyl]piperazin-1-yl}carbonyl)phenyl]sulfonyl}octahydropyrrolo[1,2-a]pyrazine]"
5,> 10 µM,"CN(c1cccc(C(=O)N2CCN3CCC[C@@H]3C2)c1)S(=O)(=O)c1cccc(C(F)(F)F)c1 [Example 69, N-{3-[(8aR)-hexahydropyrrolo[1,2-a]pyrazin-2(1H)-ylcarbonyl]phenyl}-N-methyl-3-(trifluoromethyl)benzenesulfonamide]"
